In patent US5688818A, “Succinamic acid compound, production method thereof and use thereof” (Senju Pharmaceutical Co., Ltd., priority 1993, dated 1997):

Tests used:
[1] = target: T1, aldose reductase (Sus scrofa, UniProt P80276); test: Aldose reductase activity-inhibitory action; type: biochemical; conditions: pH 6.2, 25° C., 2 minutes, 3 mM dl-glyceraldehyde substrate, 0.1 mM NADPH, swine lens enzyme
T1 construct: swine lenses freeze-stored at -80° C. were homogenized with distilled water; from tissue; host or cells: swine lens (40% ammonium sulfate supernatant, dialyzed)
Procedure: 1) Aldose reductase activity-inhibitory action
That is, swine lenses freeze-stored at -80° C. were homogenized with distilled water and centrifuged at 10,000 G for 15 minutes. The supernatant was prepared into a 40% ammonium sulfate solution and subjected to centrifugation at 10,000 G for 10 minutes.
The activity of aldose reductase was determined by the above-mentioned method of S. Hayman et al. That is, the above-mentioned enzyme solution (25 μl) and a drug solution (25 μl) dissolved in 1% DMSO at various concentrations were added to a 40 mM phosphate buffer (200 μl, pH 6.2) containing, at final concentrations, 0.4M lithium sulfate, 0. 1 mM NADPH (reduced type nicotinamide adenine dinucleotide phosphate) and 3 mM dl-glyceraldehyde as a substrate.
The test drug number indicates the example number to be mentioned later.

[2] = test system: sorbitol content in the tissues (erythrocytes, sciatic nerve, lens); test: Inhibitory action on sorbitol accumulation in tissues of rats with experimental diabetes; type: in vivo, Sprague-Dawley rats; conditions: relative to control group = 100%; for Sorbitol accumulation (%) nerve: sciatic nerve
Procedure: 2) Inhibitory action on sorbitol accumulation in tissues of rats with experimental diabetes
Test Compounds: Compounds of Example 23 and 29 and EPALRESTAT (described in Japanese Patent Unexamined Publication No. 40478/1982)
Sprague-Dawley rats (male, 6 weeks old, 5-6 per group) were fasted for 18 hours and injected with streptozotocin (SIGMA, 60 mg/kg) via the tail vein under ether anesthesia to prepare rats with diabetes.
The test compounds were orally administered at 4, 8 and 24 hours after the injection of streptozotocin. EPALRESTAT was administered orally in the dose of 30 mg/kg and the compounds of Examples 23 and 29 were administered orally in the dose of 10 mg/kg as a 0. 5% carboxymethylcellulose suspension, respectively. During the administrations, the rats were raised under free access to feed and water and the sorbitol content in the tissues (erythrocytes, sciatic nerve, lens) was determined 3 hours after the final administration, according to the enzyme method of H. Y. Bergmeyer et al. [Methods of Enzymatic Analysis, vol. 3, 1323-1330 (1974)] with the use of SDH (sorbitol dehydrogenase) and NAD (β-nicotinamide adenine dinucleotide). The results are expressed in percent (%) relative to the value of a control group administered with a 0.5% carboxymethylcellutose solution (solvent) instead of the compound, which was taken as 100%.

[3] = test system: Normal ICR mice; conditions: mouse, in vivo
Procedure: The acute toxicity (safety) of the single dose of the compound of the present invention was confirmed by the following test.
Normal ICR mice (male, 7 weeks old, 5 per group) were fasted for 18 hours and the compound (300 mg/kg) of Example 29 was orally administered as a 0.5% carboxymethylcellulose suspension. To the control group, a 0.5% carboxymethylcellulose solution alone was orally administered and observation was continued for 14 days thereafter, during which period the mice were allowed to take feed and water freely.

[4] = 10 mg/kg orally at 4, 8 and 24 hours after streptozotocin, * p < 0.01 Tukey
[5] = 30 mg/kg orally at 4, 8 and 24 hours after streptozotocin

| Structure (SMILES) | IC50 [1] [nM] | Sorbitol accumulation (%) erythrocytes [2, 4] [%] | Sorbitol accumulation (%) lens [2, 4] [%] | Sorbitol accumulation (%) nerve [2, 4] [%] | death case among the mice [3] | Sorbitol accumulation (%) erythrocytes [2, 5] [%] | Sorbitol accumulation (%) lens [2, 5] [%] | Sorbitol accumulation (%) nerve [2, 5] [%] |
| --- | --- | --- | --- | --- | --- | --- | --- | --- |
| CN(Cc1nc2c(F)c(F)cc(F)c2s1)C(=O)CCC(=O)O [Example 23, N-(4,5,7-Trifluorobenzothiazol-2-yl)methyl-N-methylsuccinamic acid] | 13 | 6.3 | 69.5 | 4.2 | – | – | – | – |
| O=C(O)CCC(=O)N(Cc1nc2c(F)c(F)cc(F)c2s1)C1CC1 [Example 29] | 17 | 12.2 | 45.4 | 1.0 | no death case | – | – | – |
| CCCCN(Cc1nc2c(F)c(F)cc(F)c2s1)C(=O)CCC(=O)O [Example 26, N-(4,5,7-Trifluorobenzothiazol-2-yl)methyl-N-butylsuccinamic acid] | 18 | – | – | – | – | – | – | – |
| CC(/C=C1\SC(=S)N(CC(=O)O)C1=O)=C\c1ccccc1 [EPALRESTAT, reference compound] | 21 | – | – | – | – | 66.5 | 89.1 | 99.9 |
